Test results taken from PubChem BioAssay AID1963868 (Molecular Pharmacology Branch, DTP, NCI, 2024).

System: KRAS PDC tumor spheroids (HUVEC+MSC), viability
Assay: Anticancer human tumor 254851-301-R-J1-PDC patient-derived colon carcinoma cell line growth inhibition [KRAS2]
Settings: for IC50: curve of first compound; for viability, T/C: stronger effect = lower value
In short: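 Combination screen of spheroid viability in tumor-cell co-cultures with endothelial (HUVEC) and mesenchymal stem cell stroma. Each agent was tested in half-log dilutions, topping at clinical Cmax or at 10 microM without a known Cmax.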

[1] = second compound 0.1 µM, first compound 0.01 µM
[2] = second compound 0.1 µM, first compound 0.0316 µM
[3] = second compound 0.316 µM, first compound 0.01 µM
[4] = second compound 0.316 µM, first compound 0.0316 µM
[5] = second compound 1 µM, first compound 0.01 µM
[6] = second compound 1 µM, first compound 0.0316 µM
[7] = second compound 3.16 µM, first compound 0.01 µM
[8] = second compound 3.16 µM, first compound 0.0316 µM
[9] = second compound 10 µM, first compound 0.01 µM
[10] = second compound 10 µM, first compound 0.0316 µM
[11] = second compound 0.1 µM, first compound 0.1 µM
[12] = second compound 0.1 µM, first compound 0.316 µM
[13] = second compound 0.1 µM, first compound 1 µM
[14] = second compound 0.1 µM, first compound 3.16 µM
[15] = second compound 0.316 µM, first compound 0.1 µM
[16] = second compound 0.316 µM, first compound 0.316 µM
[17] = second compound 0.316 µM, first compound 1 µM
[18] = second compound 0.316 µM, first compound 3.16 µM
[19] = second compound 1 µM, first compound 0.1 µM
[20] = second compound 1 µM, first compound 0.316 µM
[21] = second compound 1 µM, first compound 1 µM
[22] = second compound 1 µM, first compound 3.16 µM
[23] = second compound 3.16 µM, first compound 0.1 µM
[24] = second compound 3.16 µM, first compound 0.316 µM
[25] = second compound 3.16 µM, first compound 1 µM
[26] = second compound 3.16 µM, first compound 3.16 µM
[27] = second compound 10 µM, first compound 0.1 µM
[28] = second compound 10 µM, first compound 0.316 µM
[29] = second compound 10 µM, first compound 1 µM
[30] = second compound 10 µM, first compound 3.16 µM
[31] = second compound 0.1 µM, first compound 10 µM
[32] = second compound 0.316 µM, first compound 10 µM
[33] = second compound 1 µM, first compound 10 µM
[34] = second compound 3.16 µM, first compound 10 µM
[35] = second compound 10 µM, first compound 10 µM
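Also: spheroids exposed to compounds for seven days before readout.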
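For viability, T/C in this document: 100% = DMSO vehicle control luminescence of the spheroids.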

CC(=O)Nc1cccc(-n2c(=O)n(C3CC3)c(=O)c3c(Nc4ccc(I)cc4F)n(C)c(=O)c(C)c32)c1 + CNCc1ccccc1-c1csc(C(C)Nc2nc(C)nc3cc(OC)c(OC)cc23)c1
IC50 (second compound 0.1 µM): 4.7 nM
IC50 (second compound 0.316 µM): 5.18 nM
IC50 (second compound 1 µM): 2.4 nM
IC50 (second compound 3.16 µM): 0.639 nM
IC50 (second compound 10 µM): < 0.1 nM
viability, T/C (second compound 0.1 µM, first compound 0.0001 µM): 101%
viability, T/C (second compound 0.1 µM, first compound 0.000316 µM): 101%
viability, T/C (second compound 0.1 µM, first compound 0.001 µM): 87.7%
viability, T/C (second compound 0.1 µM, first compound 0.00316 µM): 71%
viability, T/C [1]: 11.4%
viability, T/C [2]: 2.93%
viability, T/C (second compound 0.316 µM, first compound 0.0001 µM): 82.5%
viability, T/C (second compound 0.316 µM, first compound 0.000316 µM): 99.8%
viability, T/C (second compound 0.316 µM, first compound 0.001 µM): 87.1%
viability, T/C (second compound 0.316 µM, first compound 0.00316 µM): 78.2%
viability, T/C [3]: 12.6%
viability, T/C [4]: 2.77%
viability, T/C (second compound 1 µM, first compound 0.0001 µM): 94.4%
viability, T/C (second compound 1 µM, first compound 0.000316 µM): 94.9%
viability, T/C (second compound 1 µM, first compound 0.001 µM): 88.2%
viability, T/C (second compound 1 µM, first compound 0.00316 µM): 37.9%
viability, T/C [5]: 5.82%
viability, T/C [6]: 2.26%
viability, T/C (second compound 3.16 µM, first compound 0.0001 µM): 72.5%
viability, T/C (second compound 3.16 µM, first compound 0.000316 µM): 74.9%
viability, T/C (second compound 3.16 µM, first compound 0.001 µM): 34.9%
viability, T/C (second compound 3.16 µM, first compound 0.00316 µM): 0.57%
viability, T/C [7]: 0.32%
viability, T/C [8]: 0.28%
viability, T/C (second compound 10 µM, first compound 0.0001 µM): 0.16%
viability, T/C (second compound 10 µM, first compound 0.000316 µM): 0.15%
viability, T/C (second compound 10 µM, first compound 0.001 µM): 0.13%
viability, T/C (second compound 10 µM, first compound 0.00316 µM): 0.1%
viability, T/C [9]: 0.09%
viability, T/C [10]: 0.15%

CC(=O)OC12COC1CC(O)C1(C)C(=O)C(O)C3=C(C)C(OC(=O)C(O)C(NC(=O)OC(C)(C)C)c4ccccc4)CC(O)(C(OC(=O)c4ccccc4)C21)C3(C)C (stereo not given) + COc1cc2nc(C)nc(NC(C)c3cc(N)cc(C(F)(F)F)c3)c2cc1OC1CCOC1
IC50 (second compound 0.1 µM): 180 nM
IC50 (second compound 0.316 µM): 143 nM
IC50 (second compound 1 µM): 166 nM
IC50 (second compound 3.16 µM): 66.2 nM
IC50 (second compound 10 µM): 69.7 nM
viability, T/C [1]: 95%
viability, T/C [2]: 87%
viability, T/C [11]: 62.2%
viability, T/C [12]: 38.4%
viability, T/C [13]: 27%
viability, T/C [14]: 24.5%
viability, T/C [3]: 96.1%
viability, T/C [4]: 92.7%
viability, T/C [15]: 56.4%
viability, T/C [16]: 34.6%
viability, T/C [17]: 24.7%
viability, T/C [18]: 23.3%
viability, T/C [5]: 82.2%
viability, T/C [6]: 78.7%
viability, T/C [19]: 62.1%
viability, T/C [20]: 34.6%
viability, T/C [21]: 26.4%
viability, T/C [22]: 24.5%
viability, T/C [7]: 71.8%
viability, T/C [8]: 67%
viability, T/C [23]: 40.3%
viability, T/C [24]: 28.1%
viability, T/C [25]: 24.9%
viability, T/C [26]: 24.2%
viability, T/C [9]: 72.4%
viability, T/C [10]: 68.9%
viability, T/C [27]: 41.4%
viability, T/C [28]: 25%
viability, T/C [29]: 25.1%
viability, T/C [30]: 24.4%

CC(C)NCC(C(=O)N1CCN(c2ncnc3c2C(C)CC3O)CC1)c1ccc(Cl)cc1 (stereo not given) + CC1OCC2(CCN(c3cnc(Sc4ccnc(N)c4Cl)c(N)n3)CC2)C1N
IC50 (second compound 0.1 µM): > 10000 nM
IC50 (second compound 0.316 µM): > 10000 nM
IC50 (second compound 1 µM): > 10000 nM
IC50 (second compound 3.16 µM): > 10000 nM
IC50 (second compound 10 µM): > 10000 nM
viability, T/C [2]: 104%
viability, T/C [11]: 97.1%
viability, T/C [12]: 103%
viability, T/C [13]: 93.2%
viability, T/C [14]: 102%
viability, T/C [31]: 85.3%
viability, T/C [4]: 93%
viability, T/C [15]: 86.6%
viability, T/C [16]: 75.4%
viability, T/C [17]: 79.6%
viability, T/C [18]: 79.5%
viability, T/C [32]: 88.4%
viability, T/C [6]: 72.4%
viability, T/C [19]: 72.4%
viability, T/C [20]: 83.1%
viability, T/C [21]: 75.6%
viability, T/C [22]: 69.6%
viability, T/C [33]: 68.5%
viability, T/C [8]: 58.4%
viability, T/C [23]: 68.9%
viability, T/C [24]: 64.9%
viability, T/C [25]: 66.4%
viability, T/C [26]: 67.4%
viability, T/C [34]: 70.8%
viability, T/C [10]: 58.6%
viability, T/C [27]: 64.5%
viability, T/C [28]: 65.7%
viability, T/C [29]: 60.9%
viability, T/C [30]: 55.9%
viability, T/C [35]: 58.4%

CC1OCC2(CCN(c3cnc(Sc4ccnc(N)c4Cl)c(N)n3)CC2)C1N (stereo not given) + COc1cc2nc(C)nc(NC(C)c3cc(N)cc(C(F)(F)F)c3)c2cc1OC1CCOC1
IC50 (second compound 0.1 µM): > 10000 nM
IC50 (second compound 0.316 µM): > 10000 nM
IC50 (second compound 1 µM): > 10000 nM
IC50 (second compound 3.16 µM): > 10000 nM
IC50 (second compound 10 µM): > 10000 nM
viability, T/C [2]: 118%
viability, T/C [11]: 102%
viability, T/C [12]: 91.7%
viability, T/C [13]: 78.3%
viability, T/C [14]: 82.6%
viability, T/C [31]: 75.2%
viability, T/C [4]: 105%
viability, T/C [15]: 99.9%
viability, T/C [16]: 107%
viability, T/C [17]: 80%
viability, T/C [18]: 80.7%
viability, T/C [32]: 76.7%
viability, T/C [6]: 98.7%
viability, T/C [19]: 109%
viability, T/C [20]: 103%
viability, T/C [21]: 78.4%
viability, T/C [22]: 78.6%
viability, T/C [33]: 70.3%
viability, T/C [8]: 83.8%
viability, T/C [23]: 87.8%
viability, T/C [24]: 78.6%
viability, T/C [25]: 69.8%
viability, T/C [26]: 80%
viability, T/C [34]: 62.8%
viability, T/C [10]: 76.4%
viability, T/C [27]: 82.5%
viability, T/C [28]: 70.9%
viability, T/C [29]: 72%
viability, T/C [30]: 64.4%
viability, T/C [35]: 64.3%

COc1cc(Nc2ncc3c(n2)-c2ccc(Cl)cc2C(c2c(F)cccc2OC)=NC3)ccc1C(=O)O + CC1OCC2(CCN(c3cnc(Sc4ccnc(N)c4Cl)c(N)n3)CC2)C1N
IC50 (second compound 0.1 µM): 87.5 nM
IC50 (second compound 0.316 µM): 79 nM
IC50 (second compound 1 µM): 76.4 nM
IC50 (second compound 3.16 µM): 61.4 nM
IC50 (second compound 10 µM): 41.4 nM
viability, T/C [2]: 91.7%
viability, T/C [11]: 39.8%
viability, T/C [12]: 28.8%
viability, T/C [13]: 24.9%
viability, T/C [14]: 17.1%
viability, T/C [31]: 7.2%
viability, T/C [4]: 81.1%
viability, T/C [15]: 37%
viability, T/C [16]: 28.2%
viability, T/C [17]: 22.6%
viability, T/C [18]: 13.8%
viability, T/C [32]: 6.88%
viability, T/C [6]: 86.1%
viability, T/C [19]: 33.1%
viability, T/C [20]: 29.1%
viability, T/C [21]: 23.1%
viability, T/C [22]: 14.6%
viability, T/C [33]: 7.07%
viability, T/C [8]: 70.9%
viability, T/C [23]: 30.7%
viability, T/C [24]: 23.9%
viability, T/C [25]: 21.7%
viability, T/C [26]: 12.3%
viability, T/C [34]: 5.89%
viability, T/C [10]: 58.1%
viability, T/C [27]: 23.1%
viability, T/C [28]: 21.1%
viability, T/C [29]: 19.8%
viability, T/C [30]: 13.8%
viability, T/C [35]: 6.31%

CC1(C)CCC(CN2CCN(c3ccc(C(=O)NS(=O)(=O)c4ccc(NCC5CCOCC5)c([N+](=O)[O-])c4)c(Oc4cnc5[nH]ccc5c4)c3)CC2)=C(c2ccc(Cl)cc2)C1 + COc1cc2nc(C)nc(NC(C)c3cc(N)cc(C(F)(F)F)c3)c2cc1OC1CCOC1
IC50 (second compound 0.1 µM): > 10000 nM
IC50 (second compound 0.316 µM): > 10000 nM
IC50 (second compound 1 µM): > 10000 nM
IC50 (second compound 3.16 µM): 3720 nM
IC50 (second compound 10 µM): 1730 nM
viability, T/C [2]: 103%
viability, T/C [11]: 95%
viability, T/C [12]: 95.7%
viability, T/C [13]: 97.6%
viability, T/C [14]: 91.2%
viability, T/C [31]: 83.2%
viability, T/C [4]: 86.5%
viability, T/C [15]: 83.9%
viability, T/C [16]: 92%
viability, T/C [17]: 79.3%
viability, T/C [18]: 88.6%
viability, T/C [32]: 66.4%
viability, T/C [6]: 88.7%
viability, T/C [19]: 88.1%
viability, T/C [20]: 79.8%
viability, T/C [21]: 78.1%
viability, T/C [22]: 74.9%
viability, T/C [33]: 49.2%
viability, T/C [8]: 82.2%
viability, T/C [23]: 89.3%
viability, T/C [24]: 81.2%
viability, T/C [25]: 76.4%
viability, T/C [26]: 53.3%
viability, T/C [34]: 29.6%
viability, T/C [10]: 86.6%
viability, T/C [27]: 83.8%
viability, T/C [28]: 72.5%
viability, T/C [29]: 73.9%
viability, T/C [30]: 24.2%
viability, T/C [35]: 6.7%
